The source of these data is patent US20200206198A1, “CFTR CHANNEL ACTIVATOR FOR USE IN THE TREATMENT AND/OR PREVENTION OF GLUTEN SENSITIVITY CONDITIONS” (priority 2017, published 2020).

Where a SMILES comes first, the peptide text is derived from it. [ ]: non-standard residue; d: D form. The star is where a group is joined. DON = [N-]=[N+]=CC(=O)CC[C@H](N)C(=O)O; Cbz = O=C(OCc1ccccc1)*

One assay concerns the target T1, TG2 (Homo sapiens, UniProt P21980).
T1 construct: Immunoprecipitations of endogenous proteins were performed on 500 μg of lysates from Caco-2 cells; host or cells: Caco-2
T1 sequence (P21980 1-687): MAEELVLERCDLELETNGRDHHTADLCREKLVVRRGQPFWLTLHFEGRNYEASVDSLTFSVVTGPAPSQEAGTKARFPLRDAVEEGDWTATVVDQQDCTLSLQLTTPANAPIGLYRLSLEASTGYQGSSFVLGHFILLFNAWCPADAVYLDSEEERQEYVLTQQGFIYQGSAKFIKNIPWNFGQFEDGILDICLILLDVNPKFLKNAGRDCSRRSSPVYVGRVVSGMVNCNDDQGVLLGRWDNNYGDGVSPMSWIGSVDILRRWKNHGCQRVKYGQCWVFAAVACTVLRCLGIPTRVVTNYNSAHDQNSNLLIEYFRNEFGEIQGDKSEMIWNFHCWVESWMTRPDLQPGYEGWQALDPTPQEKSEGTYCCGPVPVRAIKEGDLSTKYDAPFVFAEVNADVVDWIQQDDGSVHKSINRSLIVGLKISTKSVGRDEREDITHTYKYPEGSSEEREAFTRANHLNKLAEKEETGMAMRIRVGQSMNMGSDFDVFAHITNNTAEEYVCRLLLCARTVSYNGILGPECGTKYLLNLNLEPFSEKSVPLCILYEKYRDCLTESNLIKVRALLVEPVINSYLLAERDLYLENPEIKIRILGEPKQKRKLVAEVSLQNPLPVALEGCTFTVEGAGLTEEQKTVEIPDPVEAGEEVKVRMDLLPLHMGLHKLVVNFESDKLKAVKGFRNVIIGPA
As to the kind of experiment: TG2 interaction and TG2 activity in Caco-2 cells. It is filed as cell-based. The note with it: Caco-2 cells. How it is done:
Human colon adenocarcinoma-derived Caco-2 and T84 cells were obtained from the ATCC. Cells were maintained in T25 flask in Modified Eagle Medium (MEM) for Caco-2, or Ham's F12+DMEM (1:1) for T84, supplemented with 10% fetal bovine serum (FBS), 2 mM Glutamine+1% Non Essential Amino Acids (NEAA) and the antibiotics penicillin\streptomycin (100 units/ml) (all reagents from Lonza) (Luciani, A., et al. 2010. Cells were grown in Transwells (Corning, 3470 or 3460) under the normal condition (Luciani, A., et al. 2012). Briefly, 8×10^4 or 5×10^5 cells were seeded in 6.5-mm diameter or 12-mm diameter, respectively, and grown until the RT reached 800 to 1,200 Ω·cm2. Transwells with a pore size of 0.4 μm were used. Medium in both the apical and basolateral chambers was changed every other day. Cells were treated with 20 μg/ml of either α-gliadin peptide P31-43 or […] or scrambled PGAV or modified P31-43 either biotin-tagged or not, for different time point (from 1 h short challenge up to 24 h). Cells were also treated with 50 or 100 μg/ml of P57-68 or PGAV peptides for 3 h. Caco-2 or T84 cells were also treated with: CFTR potentiators VX-770 (10 μM) or VX-532 (20 μM) (Selleck chemicals) or Genistein (10 μM) (Sigma-Aldrich) or in presence or absence of CFTR inhibitor172 (CFTRinh172, 20 μM) or 3-methyl-adenine (3-MA, 20 μM) (Calbiochem), Z-DON (20 nM, Zedira) or BAPTA-AM (10 μM, Calbiochem).
The whole lysate or membrane fraction proteins of cell lines and mice intestine homogenates were obtained from treated and untreated cells or mice as described. The equal amount of protein were resolved by SDS-PAGE gel and blotted with antibodies against: SQSTM1, (Sigma Aldrich, 108k4767) 1:1000, PPARγ (Santa Cruz Biotechnology, sc7273) 1:500, BECN1 (Abcam, ab58878) 1:1000, CFTR clone M3A7 (Abcam, ab4067) 1:500, phospho-ERK1/2 (php42/44, Cell Signaling Technology, #91101) 1:1000, UVRAG (Santa Cruz Biotechnology sc8215) 1:1000, NHERF-1 (BD, 611161) 1:1000, EZRIN (BD, 610603) 1:1000, hVps34 (SigmaV9764) 1:300, biotin (Abcam, ab1227) 1:2000, PKAr2a (BD, 610625) 1:500, Ubiquitin (Cell Signaling clone P4D1, #3936) 1:1000, CHIP (Calbiochem PC711) 1:500, Caspase-1 p10 (M-20) (Santa Cruz Biotechnology, sc-514) 1:200, NLRP3 (Abcam, ab4207), 1:500, IDO1 (monoclonal; cv152) 1:1000^[80], used as primary antibodies. Normalization was performed by probing the membrane with anti-β-actin (Cell Signaling, #4970) 1:1000, anti-Gapdh (Sigma-Aldrich, G8795) 1:1000 and anti-flottilin (Abcam ab15148) 1:1000 antibodies. Immunoprecipitations of endogenous proteins were performed on 500 μg of lysates from Caco-2 cells. The proteins were incubated for 12-18 h at 4° C. with 10 ug\ml of specific antibody followed by the addition of Protein A/G-agarose beads for 4 h at 4° C. The beads were then washed three times with lysis buffer and Laemmli's sample buffer was added to the samples. The membranes were then blotted with: CFTR clone CF3 (Abcam, ab2784) 1:1000, TG2 (clone CUB7402; NeoMarkers) 1:1000, CHIP (Calbiochem PC711) 1:500, Ubiquitin (Cell Signaling clone P4D1 3936), isopeptide (Abcam 422) 1:1000, PKAR2 (BD 610625) 1:500.
For detection of complex with biotnylated-P31-43 or immune-complex of glutamime-lysine bonds, the beads were resolved in non-reducing and non-denaturating conditions, and then blotted with Streptavidin-HRP (Sigma 52438) 1:3000 or anti-biotin (Abcam ab2103) 1:2500 and anti-isopeptide (Abcam 422) 1:1000.
TG2 enzymatic activity in Caco-2, treated as described above, was detected: 1) by incubating unfixed sections with biotin-mono-dansylcadaverine (MDC, 10 mM, Molecular Probe) for 1 h at room temperature and then stained with Alexa-fluor488-Streptavidin, as previously described (JI2008/2009) or 2) or by incorporation of 5(biotinamido)pentylamines (BAP) into protein substrates. For BAP-incorporation, 2 mM BAP (Soltec Ventures, B110) were directly added into the medium together with the indicated treatments. […]

Assay [1] relates to recombinant human NBD1 (rhNBD1). As to the kind of experiment: Surface plasmon resonance peptide-protein interaction. Type of assay: binding. The note with it: rhNBD1 immobilized on chip, different peptide concentrations. How it is done: Peptide-protein interactions were studied using a Biacore™ T100 (GE Healthcare) instrument. hrNBD1 domain or the indicated biotinylated peptides were immobilized by thiol coupling on a CMS (series S) sensor chip to a final density of 2000 resonance units (RU) or by biotin-streptavidin capture on a SA (series S) sensor chip to a final density of 250 RU, respectively. A flow cell with no immobilized protein or peptide was used as control. Binding analysis was carried out at 20° C. in a running buffer consisting of 10 mM HEPES, pH 7.4, 150 mM NaCl, 0.05% (v/v) Tween-20, 2 mM ATP, 5 mM MgCl2, 1 mM DTT applying a flow rate of 20 μl/min. For each experiment a Biacore™ method program was used. It included a series of three start up injections (running buffer), zero control (running buffer) and different concentrations of ligand. […] Each sensorgram (time-course of the surface plasmon resonance signal) was corrected for the response obtained in the control flow cell and normalized to baseline. Data were analysed using the 2.0.3 BIAevaluation software (GE Healthcare). At least three independent experiments for each analysis were performed.
FIG. 2: a, Protein-Protein docking and Molecular Dynamics of P31-43 (violet) bound to NBD1 (orange). Left side: general view of P31-43 and NBD1 interaction. Upper right: detailed interaction pattern, highlighting the most important amino acids. Lower right: in silico NBD1/P31-43 complex compared to the original crystallographic positions of Tip 401 and ATP. b, Graphical view of the in silico sampling percentage of P31-43 against NBD1/NBD2 (left 10 panel), and of P31-43/4QA (4QA) against NBD1 (right panel). c-d, Surface plasmon resonance (SPR) analysis of rhNBD1 binding to P31-43 and P57-68 biotinylated peptides immobilized on SA sensor chip (c) and of increasing concentrations of P31-43 and P57-68 peptides 15 on rhNBD1 covalently bound to the CMS sensor chip (d).
(Surface plasmon resonance follows binding to a sensor surface in real time, without labels.)

Assay [2] concerns the target T2, CFTR (Homo sapiens, UniProt P13569).
T2 construct: Immunoprecipitations of endogenous proteins were performed on 500 μg of lysates from Caco-2 cells; host or cells: Caco-2, T84
As to the kind of experiment: Co-immunoprecipitation of biotinylated peptides with CFTR in Caco-2 cells. It is filed as cell-based. The note with it: 1 h with biotinylated peptides.
Procedure: Human colon adenocarcinoma-derived Caco-2 and T84 cells were obtained from the ATCC. Cells were maintained in T25 flask in Modified Eagle Medium (MEM) for Caco-2, or Ham's F12+DMEM (1:1) for T84, supplemented with 10% fetal bovine serum (FBS), 2 mM Glutamine+1% Non Essential Amino Acids (NEAA) and the antibiotics penicillin\streptomycin (100 units/ml) (all reagents from Lonza) (Luciani, A., et al. 2010. Cells were grown in Transwells (Corning, 3470 or 3460) under the normal condition (Luciani, A., et al. 2012). Briefly, 8×10^4 or 5×10^5 cells were seeded in 6.5-mm diameter or 12-mm diameter, respectively, and grown until the RT reached 800 to 1,200 Ω·cm2. Transwells with a pore size of 0.4 μm were used. Medium in both the apical and basolateral chambers was changed every other day. […] Cells were also treated with 50 or 100 μg/ml of P57-68 or PGAV peptides for 3 h. Caco-2 or T84 cells were also treated with: CFTR potentiators VX-770 (10 μM) or VX-532 (20 μM) (Selleck chemicals) or Genistein (10 μM) (Sigma-Aldrich) or in presence or absence of CFTR inhibitor172 (CFTRinh172, 20 μM) or 3-methyl-adenine (3-MA, 20 μM) (Calbiochem), Z-DON (20 nM, Zedira) or BAPTA-AM (10 μM, Calbiochem).
The separation of endosomal fractions was performed as described^9 from treated and untreated cells. Protein of endosomal fraction were resolved by SDS-Page and blotted with primary antibodies against Rab-5(Abcam 18211) 1:500, Rab-7(Abcam 77993) 1:500, EEA-1 (Abcam 2900) 1:500, TG2 or CFTR. EEA-1 was used as early endosome marker. For detection of complex with biotnylated-P31-43, the beads were resolved in non-reducing and non-denaturating conditions, and then blotted with Streptavidin-HRP (Sigma S2438) 1:3000 or anti-biotin (Abcam ab2103) 1:2500.

Assay [3] has as its target T2, CFTR. As to the kind of experiment: CFTR channel function in intestinal epithelial cells (forskolin-induced Isc in Ussing chambers; SPQ iodide efflux). Type of assay: cell-based. The note with it: 20 μg/ml peptide; intestinal epithelial cells (Caco-2, T84). How it is done:
Human colon adenocarcinoma-derived Caco-2 and T84 cells (Barone, M. V. et al. 2014; Luciani, A. et al. 2010) were obtained from the ATCC. Cells were maintained in T25 flask in Modified Eagle Medium (MEM) for Caco-2, or Ham's F12+DMEM (1:1) for T84, supplemented with 10% fetal bovine serum (FBS), 2 mM Glutamine+1% Non Essential Amino Acids (NEAA) and the antibiotics penicillin\streptomycin (100 units/ml) (all reagents from Lonza). Caco-2 cells were grown in Transwells (Corning, 3470 or 3460) under the normal condition. Briefly, 8×10^4 or 5×10^5 cells were seeded in 6.5-mm diameter or 12-mm diameter, respectively, and grown until the RT reached 800 to 1,200 Ω·cm^2. Transwells with a pore size of 0.4 μm were used. Medium in both the apical and baso lateral chambers was changed every other day. Cells were treated with 20 μg/ml of either with the α-gliadin peptide comprising the P31-43 amino acid sequence of α-gliadin LGQQQPFPPQQPY (SEQ ID 1) (below referred to as P31-43), which is known to induce an enterocyte stress response (Meresse, B. et al.2009; Barone, M. V. et al. 2014; Luciani, A. et al. 2010), the T-cell activating α-gliadin peptide comprising the P57-68 amino acid sequence of α-gliadin (QLQPFPQPQLPY SEQ ID 2)) (below referred to as P57-68) (Maiuri, L., et al. 2003; Meresse, B. et al.2009; 30 Barone, M. V. et al. 2014), or the scrambled GAVAAVGVVAGA (SEQ ID 3) control peptide (below referred to as PGAV), or with different modified P31-43, either biotin-tagged or not, for different time points (from 1 h short challenge up to 24 h). Cells were also treated with 50 or 100 5 μg/ml of P57-68 or PGAV peptides for 3 h.
Caco-2 or T84 cells were also treated with: CFTR potentiators VX-770 (Ivacaftor) (10 μM) or VX-532 (20 μM) (Selleck chemicals) or Genistein (10 μM) (Verkman, A. S. et al. 2005; Jih, K. Y. et al. 2013) (Sigma-Aldrich) or in presence or absence of CFTR inhibitor172 (CFTRinh172, 20 μM).
Human colon adenocarcinoma-derived Caco-2 and T84 cells were obtained from the ATCC. Cells were maintained in T25 flask in Modified Eagle Medium (MEM) for Caco-2, or Ham's F12+DMEM (1:1) for T84, supplemented with 10% fetal bovine serum (FBS), 2 mM Glutamine+1% Non Essential Amino Acids (NEAA) and the antibiotics penicillin\streptomycin (100 units/ml) (all reagents from Lonza) (Luciani, A., et al. 2010. Cells were grown in Transwells (Corning, 3470 or 3460) under the normal condition (Luciani, A., et al. 2012). Briefly, 8×10^4 or 5×10^5 cells were seeded in 6.5-mm diameter or 12-mm diameter, respectively, and grown until the RT reached 800 to 1,200 Ω·cm2. Transwells with a pore size of 0.4 μm were used. Medium in both the apical and basolateral chambers was changed every other day. […]

T2 sequence (P13569 whole entry): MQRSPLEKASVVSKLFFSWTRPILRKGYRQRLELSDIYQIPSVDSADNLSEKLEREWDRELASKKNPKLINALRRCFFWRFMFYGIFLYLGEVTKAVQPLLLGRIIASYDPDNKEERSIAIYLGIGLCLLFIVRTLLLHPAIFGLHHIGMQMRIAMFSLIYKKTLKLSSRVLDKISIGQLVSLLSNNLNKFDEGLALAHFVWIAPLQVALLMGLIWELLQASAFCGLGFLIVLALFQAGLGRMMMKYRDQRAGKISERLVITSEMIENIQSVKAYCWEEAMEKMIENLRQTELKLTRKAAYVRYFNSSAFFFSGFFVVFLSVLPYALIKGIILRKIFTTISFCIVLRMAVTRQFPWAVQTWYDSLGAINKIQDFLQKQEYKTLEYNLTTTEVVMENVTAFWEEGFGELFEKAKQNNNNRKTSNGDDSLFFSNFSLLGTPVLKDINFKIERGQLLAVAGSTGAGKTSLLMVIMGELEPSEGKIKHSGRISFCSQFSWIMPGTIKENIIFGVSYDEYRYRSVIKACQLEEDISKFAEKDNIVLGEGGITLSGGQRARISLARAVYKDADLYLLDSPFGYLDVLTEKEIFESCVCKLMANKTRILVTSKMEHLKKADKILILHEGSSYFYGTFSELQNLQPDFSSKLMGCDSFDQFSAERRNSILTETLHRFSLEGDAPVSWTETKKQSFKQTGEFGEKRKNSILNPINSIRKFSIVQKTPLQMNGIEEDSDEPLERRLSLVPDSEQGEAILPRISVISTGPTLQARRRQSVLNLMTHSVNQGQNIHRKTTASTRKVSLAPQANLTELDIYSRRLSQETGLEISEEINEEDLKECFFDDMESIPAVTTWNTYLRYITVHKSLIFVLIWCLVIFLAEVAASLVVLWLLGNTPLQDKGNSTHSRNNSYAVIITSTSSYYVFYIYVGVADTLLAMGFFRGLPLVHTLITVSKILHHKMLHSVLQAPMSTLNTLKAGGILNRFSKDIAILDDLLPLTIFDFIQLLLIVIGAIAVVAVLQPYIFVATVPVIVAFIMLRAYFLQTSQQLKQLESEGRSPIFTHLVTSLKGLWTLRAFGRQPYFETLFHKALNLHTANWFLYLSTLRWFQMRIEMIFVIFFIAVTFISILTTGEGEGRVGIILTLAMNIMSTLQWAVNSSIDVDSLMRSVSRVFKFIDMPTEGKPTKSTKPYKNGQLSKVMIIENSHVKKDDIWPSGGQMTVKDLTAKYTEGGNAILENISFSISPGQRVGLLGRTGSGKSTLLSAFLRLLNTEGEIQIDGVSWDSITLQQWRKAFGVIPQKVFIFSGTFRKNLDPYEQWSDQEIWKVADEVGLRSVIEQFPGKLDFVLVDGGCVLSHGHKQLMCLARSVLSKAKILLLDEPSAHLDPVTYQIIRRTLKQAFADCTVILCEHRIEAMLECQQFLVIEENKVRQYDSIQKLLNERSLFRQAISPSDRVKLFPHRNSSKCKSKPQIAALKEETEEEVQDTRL

`CC(=O)OCOC(=O)CN(CC(=O)OCOC(C)=O)c1ccccc1OCCOc1ccccc1N(CC(=O)OCOC(C)=O)CC(=O)OCOC(C)=O` [BAPTA-AM]: on TG2, the “effect on P31-43-induced interaction of TG2 and CFTR” value is on record as “prevented”.

In the case of `COC(=O)[C@H](CC(C)C)NC(=O)[C@@H]1CCCN1C(=O)[C@@H](NC(=O)[C@H](CCC(=O)C=[N+]=[N-])NC(=O)OCc1ccccc1)C(C)C` [Z-DON] (Cbz-[DON]VPL-OMe), the “effect on P31-43-induced interaction of TG2 and CFTR” value at TG2 is “prevented”.

As for “P57-68: T-cell activating α-gliadin peptide QLQPFPQPQLPY (SEQ ID 2) (P57-68 sequence of alpha-gliadin)”, the “SPR signal on immobilized rhNBD1” value in assay [1] is recorded as “failed to induce any signal”.

On to “4QA: P31-43 with glutamines at residues 4, 5, 10 and 11 substituted with alanines, LGQAAPFPPAAPY (SEQ ID 4) (P31-43 sequence of alpha gliadin with glutamine residues at positions 4, 5, 10 and 11 substituted with alanines)”, for which, in assay [1], the “SPR signal on immobilized rhNBD1” value is “failed to interact with NBD1”. Moreover, the entries for the “interaction (co-immunoprecipitation) with CFTR” value with CFTR [2] and with CFTR [2] (listed as Q4A) were “failed to interact with CFTR” and “did not co-immunoprecipitate with CFTR”, respectively. In addition, the “reduction of CFTR channel function in response to forskolin” value in the assay with CFTR [3] is “failed to interact with CFTR and to inhibit its function”.
